According to patent EP4049726A1, “IMIDAZO[1,2-A]PYRAZINES AS INHIBITORS OF HASPIN AND THERAPEUTIC USES THEREOF” (Fundación del Sector Público Estatal Centro Nacional de …, priority 2021, dated 2022):

Columns and labels:
HASPIN [1] = target: T1, HASPIN (Homo sapiens, UniProt Q8TF76); test: HASPIN biochemical assay (ADP-Glo, HASPIN autophosphorylation); conditions: ATP 150 µM, 60 min at 30 °C
T1 sequence (Q8TF76 1-798): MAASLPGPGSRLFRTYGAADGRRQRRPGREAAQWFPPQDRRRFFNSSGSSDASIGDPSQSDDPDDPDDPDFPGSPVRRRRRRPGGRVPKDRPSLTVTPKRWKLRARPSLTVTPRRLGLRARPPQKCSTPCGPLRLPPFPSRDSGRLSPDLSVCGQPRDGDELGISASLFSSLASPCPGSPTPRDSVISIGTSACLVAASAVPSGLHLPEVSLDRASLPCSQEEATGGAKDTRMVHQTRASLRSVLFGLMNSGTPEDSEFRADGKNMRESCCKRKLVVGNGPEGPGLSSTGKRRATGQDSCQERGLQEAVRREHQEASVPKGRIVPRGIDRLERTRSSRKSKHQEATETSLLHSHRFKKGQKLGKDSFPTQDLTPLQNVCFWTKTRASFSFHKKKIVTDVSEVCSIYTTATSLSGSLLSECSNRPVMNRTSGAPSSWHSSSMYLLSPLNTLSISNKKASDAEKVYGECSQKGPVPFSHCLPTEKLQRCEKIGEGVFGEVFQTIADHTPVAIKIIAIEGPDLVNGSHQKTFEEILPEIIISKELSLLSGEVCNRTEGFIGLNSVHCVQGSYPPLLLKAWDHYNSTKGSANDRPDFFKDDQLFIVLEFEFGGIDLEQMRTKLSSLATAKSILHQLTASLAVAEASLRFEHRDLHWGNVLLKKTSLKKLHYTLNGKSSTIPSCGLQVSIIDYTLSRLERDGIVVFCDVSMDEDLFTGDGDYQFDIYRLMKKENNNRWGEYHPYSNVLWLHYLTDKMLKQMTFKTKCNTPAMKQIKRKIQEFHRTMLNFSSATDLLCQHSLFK
Procedure: HASPIN biochemical Assay: The biochemical assay to measure HASPIN activity relies on the ADP-Glo™ assay kit (Promega) that determines the amount of ADP as direct product of the kinase enzyme activity. Assay conditions were as indicated by the kit manufacturers with the following adaptations for the kinase activity step: Kinase assay buffer and assay volume (15 mM HEPES pH 7.5, 20 mM NaCl, 1 mM EGTA, 0.02% TWEEN 20, 10 mM MgCl2, 0.1 mg/mL BGG)/25 µL assay volume). Incubation time and temperature: 60 min at 30 °C. HASPIN final concentration: 0.9 µg/mL. ATP final concentration: 150 µM. HASPIN autophosphorylation was measured. Assays were performed in 384-well plates. The final outcome of the coupled reactions provided by the kit is the release of […] and has been measured with a multilabel HTS counter Victor V / Envision. Values were normalized against the control activity included (100% HASPIN activity, without compound). Values were plotted against the inhibitor concentration and fit to a sigmoid dose-response curve using Activity base by IDBS software.

HASPIN [2] = target: T1, HASPIN; test: Cellular HASPIN inhibition assay (phosphorylation of H3T3, western blot); format: cell-based; conditions: MV4:11 cells, 8 hours of treatment, read-out: pH3T3 EC50
Procedure: Cellular HASPIN Inhibition Assay (phosphorylation of H3T3): Compounds can be screened for their ability to inhibit intracellular HASPIN using a western blot assay to detect phosphorylation of the HASPIN substrate H3T3 in synchronized cells. MV4:11 cells are plated at 400000 cells per well in 6-well plates in RPMI media supplemented with 10% foetal bovine serum, Penicillin/Streptomycin solution diluted 1: 100, and fungizone, and allowed to adhere overnight at 37 °C in 5% CO2. Then, compounds are added to the cell media from a final concentration of 10 µM in 10-fold serial dilutions and the cells are incubated at 37 °C in 5% CO2. After 8 hours of treatment with the compounds, the cells are washed in PBS, lysed adding 100 µl of protein lysis buffer (62.5 mM Tris pH 6.8 al 6.25%, 2% SDS y 10% glycerol) incubation 10 minutes at room temperature and heating at 95 °C 10 min. The protein content of the lysates is determined by DC protein assay. The proteins are resolved by SDS-PAGE and transferred to nitrocellulose membrane. The membranes are incubated overnight at 4 °C with antibodies specific for H3, phosphothreonine-3 H3 they are washed and then incubated with IRDye800 conjugated antimouse and Alexa Fluor 680 goat anti-rabbit IgG secondary antibodies. The bands are visualized and quantified using an Odyssey infrared imaging system. The percentage of H3 phosphorylation is finally plotted against concentration for each compound and EC50s for intracellular HASPIN inhibition are calculated using a software platform for screening data management.

IC50 (HASPIN [1]) | EC50 (HASPIN [2]) | SMILES
9.42 nM | < 50 nM | NC(=O)c1cn2cc(-c3ccncc3F)nc(NCC3CCNCC3)c2n1 [Compound 27, 6-(3-Fluoro-pyridin-4-yl)-8-[(piperidin-4-ylmethyl)-amino]-imidazo[1,2-a]pyrazine-2-carboxylic acid amide]
7.63 nM | < 50 nM | CNC(=O)c1cn2cc(-c3ccncc3F)nc(NCC3(C#N)CCNCC3)c2n1 [Compound 32, 8-[(4-Cyano-piperidin-4-ylmethyl)-amino]-6-(3-fluoro-pyridin-4-yl)-imidazo[1,2-a]pyrazine-2-carboxylic acid methylamide]
10.5 nM | < 50 nM | NC(=O)c1cn2cc(-c3ccncc3F)nc(NCC3(F)CCNCC3)c2n1 [Compound 33, 8-[(4-Fluoro-piperidin-4-ylmethyl)-amino]-6-(3-fluoro-pyridin-4-yl)-imidazo[1,2-a]pyrazine-2-carboxylic acid amide]

Continued, molecule first:

SMILES | IC50 (HASPIN [1]) | EC50 (HASPIN [2])
NC(=O)c1cn2cc(-c3ccnc(Cl)c3)nc(NCC3CCNCC3)c2n1 [Compound 3, 6-(2-Chloro-pyridin-4-yl)-8-[(piperidin-4-ylmethyl)-amino]-imidazo[1,2-a]pyrazine-2-carboxylic acid amide] | 45.2 nM | < 50 nM
CNC(=O)c1cn2cc(-c3ccncc3)nc(NCC3CCNCC3)c2n1 [Compound 4, 8-[(Piperidin-4-ylmethyl)-amino]-6-pyridin-4-yl-imidazo[1,2-a]pyrazine-2-carboxylic acid methylamide] | 20.4 nM | < 50 nM
N#CC1(CNc2nc(-c3ccncc3)cn3cc(C(N)=O)nc23)CCNCC1 [Compound 8, 8-[(4-Cyano-piperidin-4-ylmethyl)-amino]-6-pyridin-4-yl-imidazo[1,2-a]pyrazine-2-carboxylic acid amide] | 19.7 nM | < 50 nM
Cc1cc(-c2cn3cc(C(N)=O)nc3c(NCC3CCNCC3)n2)ccn1 [Compound 36, 6-(2-Methyl-pyridin-4-yl)-8-[(piperidin-4-ylmethyl)-amino]-imidazo[1,2-a]pyrazine-2-carboxylic acid amide] | 24.6 nM | < 50 nM
